Results: patent US20130267474A1, “NOVEL PHYTOCHEMICALS FROM EXTRACTS OF MAPLE SYRUPS AND MAPLE TREES AND USES THEREOF” (UNIVERSITY OF RHODE ISLAND, priority 2010, published 2013)
Where two headings read alike, the source gives them in different places. Values belong to the compound of their own block, whether it stands above or below them.

Legend:
[1] = system: HCT-116 (human colon carcinoma); assay: MTS cytotoxicity / antiproliferative assay; format: cell-based; conditions: Homo sapiens
Procedure: (§1) Cell lines included three human colon cancer cells: HT-29 (human colon adenocarcinoma), HCT116 (human colon carcinoma) and Caco-2 (human epithelial colorectal adenocarcinoma). In addition, normal human colon cells are included: CCD-^18Co (human colon fibroblasts). All cell lines are obtained from the American Type Culture Collection (ATCC, Rockville, Md., USA) and maintained at the University of Rhode Island.
(§2) The assay is carried out to measure the IC50 values for samples. […] Test samples and a positive control, etoposide 4 mg/mL (Sigma), are solubilized in DMSO by sonication. […] Control wells are also included on all plates. […] Each point on the curve is […]. Data (see tables 6 to 9) are expressed as mean±SE for three replications on each cell line.

[2] = DPPH radical scavenging (antioxidant) assay; format: biochemical
Procedure: The DPPH radical scavenging activity of ascorbic acid (vitamin C) and the synthetic commercial antioxidant, butylated hydroxytoluene (BHT) are also assayed as positive controls (see Table 10). […] Absorbance is determined after 30 min at 515 nm, and the scavenging capacity (SC) is calculated as SC %=[(A0−A1/A0)]×100, where A0 is the absorbance of the reagent blank and A1 is the absorbance of the test samples. The control contained all reagents except the compounds, and all tests are performed in triplicate.
Absorbance is determined after 30 min at 515 nm, and the scavenging capacity (SC) is calculated as SC %=[(A0−A1/A0)]×100 where A0 is the absorbance of the reagent blank, and A1 is the absorbance with test samples. The control contained all reagents except the compounds and all tests are performed in triplicate.

[3] = system: HT-29 (human colon adenocarcinoma); assay: MTS cytotoxicity / antiproliferative assay; format: cell-based; conditions: Homo sapiens
Procedure: as §1, §2

[4] = system: Caco-2 (human epithelial colorectal adenocarcinoma); assay: MTS cytotoxicity / antiproliferative assay; format: cell-based; conditions: Homo sapiens
Procedure: as §1, §2

[5] = HCT-116, 72 h, Table 6 maple compounds, 72 h, unit inferred, read-out: HCT-116 72 h(IC50)
[6] = Table 10, mean ± standard deviation, 30 min, 515 nm, read-out: IC50 (μM), DPPH radical scavenging
[7] = HCT-116, 48 h, read-out: Antiproliferative activity HCT-116 48 h (IC50), 48 h, pure isolated compounds
[8] = HCT-116, 72 h, 72 h, pure isolated compounds, read-out: Antiproliferative activity HCT-116 72 h (IC50)
[9] = HT-29, 72 h, 72 h, pure isolated compounds, read-out: Antiproliferative activity HT-29 72 h (IC50)
[10] = Caco-2, 48 h, read-out: Caco-2 48 h(IC50), Table 6 maple compounds, 48 h, unit inferred
[11] = Caco-2, 72 h, Table 6 maple compounds, 72 h, unit inferred, read-out: Caco-2 72 h(IC50)

Compound: O=C(O)/C=C/c1ccc(O)cc1 [p-Coumaric Acid]
IC50 [1, 5]: 124 µM

IC50 [2, 6]: 258 ± 33.8 µM
Compound: syringic acid [compound 19]

IC50 [2, 6]: 814 ± 37.7 µM
Compound: COc1cc(C(O)C(CO)Oc2ccc(C(O)C(O)CO)cc2OC)ccc1O (stereo not shown) [compound 28]

Compound: catechaldehyde [compound 14]
IC50 [2, 6]: 694 ± 110 µM

Compound: COc1cc(CCCO)ccc1OC(CO)C(O)c1ccc(OC2OC(C)C(O)C(O)C2O)c(OC)c1 (stereo not shown) [compound 55]
IC50 [1, 7]: 119 ± 1.4 µM
IC50 [1, 8]: 104 ± 1.7 µM
IC50 ([1]; HCT-116, 72 h, 72 h, range given for the group, read-out: IC50 against HCT-116 cells at 72 h (activity ranking)): 94 to 110 µM
IC50 ([3]; HT-29, 48 h, read-out: Antiproliferative activity HT-29 48 h (IC50), 48 h, pure isolated compounds): 128.2 ± 1.1 µM
IC50 [3, 9]: 121 ± 1.3 µM

IC50 [2, 6]: 925 ± 179 µM
Compound: dehydroconiferyl alcohol [compound 3]

IC50 [2, 6]: 112 ± 5.1 µM
Compound: trimethyl gallic acid methyl ester [compound 18]

IC50 [2, 6]: 139 ± 13.3 µM
Compound: COc1cc([C@@H](O)[C@@H](CO)Oc2ccc(CCCO)cc2OC)ccc1O [compound 29, threo-guaiacylglycerol-β-O-4′-dihydroconiferyl alcohol]

Compound: COc1cc(C=O)cc(OC)c1O [compound 16, syringaldehyde]
IC50 ([1]; HCT-116, 48 h, read-out: Antiproliferative activity HCT-116 48 h (IC50)): 66.8 ± 1.3 µM
IC50 ([1]; HCT-116, 48 h, read-out: HCT-116 48 h(IC50)): 66.8 µM
IC50 ([1]; HCT-116, 72 h, read-out: Antiproliferative activity HCT-116 72 h (IC50)): 56.3 ± 1.8 µM
IC50 ([1]; HCT-116, 72 h, read-out: HCT-116 72 h(IC50)): 56.3 µM
IC50 ([1]; HCT-116, 72 h, read-out: IC50 against HCT-116 cells at 72 h (activity ranking)): 42 to 67 µM
IC50 ([3]; HT-29, 48 h, read-out: Antiproliferative activity HT-29 48 h (IC50)): 90.7 ± 3 µM
IC50 ([3]; HT-29, 48 h, read-out: HT-29 48 h(IC50)): 90.7 µM
IC50 ([3]; HT-29, 72 h, read-out: Antiproliferative activity HT-29 72 h (IC50)): 68.6 ± 1.4 µM
IC50 ([3]; HT-29, 72 h, read-out: HT-29 72 h(IC50)): 68.6 µM
IC50 ([4]; Caco-2, 48 h, read-out: Antiproliferative activity Caco-2 48 h (IC50)): 59.4 ± 2.7 µM
IC50 ([4]; Caco-2, 48 h, read-out: Caco-2 48 h(IC50)): 59.4 µM
IC50 ([4]; Caco-2, 72 h, read-out: Antiproliferative activity Caco-2 72 h (IC50)): 35.9 ± 2.4 µM
IC50 ([4]; Caco-2, 72 h, read-out: Caco-2 72 h(IC50)): 35.9 µM

Compound: COc1cc(/C=C/CO)ccc1O [compound 21, (E)-coniferol]
IC50 [1, 7]: 111 ± 1.5 µM
IC50 ([1]; HCT-116, 48 h, read-out: HCT-116 48 h(IC50), Table 6 maple compounds, 48 h, unit inferred): 111 µM
IC50 [1, 8]: 84.6 ± 1.9 µM
IC50 ([1]; HCT-116, 72 h, 72 h, range given for the group, unit inferred, read-out: IC50 against HCT-116 cells at 72 h (moderately active group)): 75 to 85 µM
IC50 [1, 5]: 84.6 µM
IC50 [3, 9]: 113 ± 1.9 µM
IC50 ([3]; HT-29, 72 h, Table 6 maple compounds, 72 h, unit inferred, read-out: HT-29 72 h(IC50)): 113 µM
IC50 ([4]; Caco-2, 48 h, read-out: Antiproliferative activity Caco-2 48 h (IC50), 48 h, pure isolated compounds): 112 ± 2 µM
IC50 [4, 10]: 116 µM
IC50 ([4]; Caco-2, 72 h, 72 h, pure isolated compounds, read-out: Antiproliferative activity Caco-2 72 h (IC50)): 96.4 ± 2.9 µM
IC50 [4, 11]: 96.4 µM

IC50 [2, 6]: 422.9 ± 2.4 µM
Compound: O=C(CO)c1ccc(O)c(O)c1 [compound 11, 2-hydroxy-3′,4′-dihydroxyacetophenone]
IC50 [4, 10]: 92.5 µM
IC50 [4, 11]: 86 µM

IC50 [2, 6]: 40.2 ± 13.4 µM
IC50, DPPH radical scavenging, converted (ca.) ([2]; conversion of the μM value): ca. 7.08 μg/mL
IC50 ([2]; listed as Vitamin C, read-out: IC50, DPPH radical scavenging (text)): 40 µM
IC50 ([2]; listed as vitamin C, read-out: IC50, DPPH radical scavenging (text)): 58 µM
Compound: O=C1O[C@H]([C@@H](O)CO)C(O)=C1O [Ascorbic acid, reference compound]

Compound: COc1cc(C(O)C(CO)Oc2c(OC)cc(C(O)C(O)CO)cc2OC)ccc1O (stereo not drawn) [compound 25, (erythro,erythro)-1-[4-[2-hydroxy-2-(4-hydroxy-3-methoxyphenyl)-1-(hydroxymethyl)ethoxy]-3,5-dimethoxyphenyl]-1,2,3-propanetriol]
IC50 [2, 6]: 97.8 ± 24 µM

IC50 [2, 6]: 946 ± 58.5 µM
Compound: lyoniresinol [compound 1]

Compound: syringaldehyde [compound 16]
IC50 [2, 6]: 2880 ± 44 µM
